In the experiment the target is T1, human mAChR M1 (Homo sapiens, UniProt P11229).
T1 construct: host or cells: CHO-K1 (ATCC), stably transfected using Lipofectamine 2000
T1 sequence (P11229 1-460): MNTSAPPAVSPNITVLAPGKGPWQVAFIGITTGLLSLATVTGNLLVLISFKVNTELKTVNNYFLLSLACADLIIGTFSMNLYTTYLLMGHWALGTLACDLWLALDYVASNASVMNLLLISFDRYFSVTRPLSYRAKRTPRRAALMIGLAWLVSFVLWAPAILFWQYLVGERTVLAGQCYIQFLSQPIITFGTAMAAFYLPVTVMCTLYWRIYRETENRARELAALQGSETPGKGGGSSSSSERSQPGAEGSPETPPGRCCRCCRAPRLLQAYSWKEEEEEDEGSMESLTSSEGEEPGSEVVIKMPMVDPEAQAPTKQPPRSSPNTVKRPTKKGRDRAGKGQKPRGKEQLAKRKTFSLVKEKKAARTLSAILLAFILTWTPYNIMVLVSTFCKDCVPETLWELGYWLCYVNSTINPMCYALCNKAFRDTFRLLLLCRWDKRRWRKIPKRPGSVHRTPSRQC
The experiment can be described thus: mAChR M1 cell-based functional assay (calcium mobilization, Fluo-4, FDSS). Particulars: CHO-K1 cells stably expressing hM1; calcium flux; PAM mode with EC20 acetylcholine. The method, boiled down:
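CHO-K1 cells stably expressing hM1 loaded with Fluo-4 AM. Compound added at 4 s, acetylcholine EC20 at 144 s and EC80 at 230 s, with FDSS fluorescence ratio read at 1 Hz. Agonist, PAM (EC20 potentiation) and antagonist (EC80 decrease) activity; EC50 and Emax from four-parameter logistic fit.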
Background: Calcium assays in cells follow changes in intracellular calcium, usually with a dye or a luminescent sensor.

With `Cc1[nH]cc2c1C(=O)N(Cc1c(F)cc(-c3cccc4nn(C)cc34)cc1F)C2` [Compound 61, 2-(2,6-difluoro-4-(2-methyl-2H-indazol-4-yl)benzyl)-6-methyl-3,5-dihydropyrrolo[3,4-c]pyrrol-1(2H)-one], the Emax – broadly, the size of the effect at its maximum, as opposed to the concentration needed – is 51%.

The values above are taken from patent US20190330226A1, “POSITIVE ALLOSTERIC MODULATORS OF THE MUSCARINIC ACETYLCHOLINE RECEPTOR M1” (Vanderbilt University, priority 2018, published 2019).
